Measurements taken from patent US12630521B2, “Arylamides and methods of use thereof” (Genzyme Corporation, priority 2019, dated 2026).

Tests used:
[1] = molecular target: T1, human Cystic Fibrosis Transmembrane Conductance Regulator (CFTR) harboring the ΔF508 mutation (Homo sapiens, UniProt P13569, DEL508-508); experiment: H441 cell Emax and EC50: HRP-tagged ΔF508-CFTR cell-surface luminescence assay; format: cell-based; settings: H441 cells expressing HRP-tagged ΔF508-CFTR, 27° C. for two nights; for EC50: 15-point dose-response; for Emax: NCI-H441, % of maximum VX809 signal
T1 construct: expressed in transfected cells; host or cells: H441 carcinoma cell line (G418 selection)
T1 sequence (P13569 with tags, fused parts or gaps DEL508-508): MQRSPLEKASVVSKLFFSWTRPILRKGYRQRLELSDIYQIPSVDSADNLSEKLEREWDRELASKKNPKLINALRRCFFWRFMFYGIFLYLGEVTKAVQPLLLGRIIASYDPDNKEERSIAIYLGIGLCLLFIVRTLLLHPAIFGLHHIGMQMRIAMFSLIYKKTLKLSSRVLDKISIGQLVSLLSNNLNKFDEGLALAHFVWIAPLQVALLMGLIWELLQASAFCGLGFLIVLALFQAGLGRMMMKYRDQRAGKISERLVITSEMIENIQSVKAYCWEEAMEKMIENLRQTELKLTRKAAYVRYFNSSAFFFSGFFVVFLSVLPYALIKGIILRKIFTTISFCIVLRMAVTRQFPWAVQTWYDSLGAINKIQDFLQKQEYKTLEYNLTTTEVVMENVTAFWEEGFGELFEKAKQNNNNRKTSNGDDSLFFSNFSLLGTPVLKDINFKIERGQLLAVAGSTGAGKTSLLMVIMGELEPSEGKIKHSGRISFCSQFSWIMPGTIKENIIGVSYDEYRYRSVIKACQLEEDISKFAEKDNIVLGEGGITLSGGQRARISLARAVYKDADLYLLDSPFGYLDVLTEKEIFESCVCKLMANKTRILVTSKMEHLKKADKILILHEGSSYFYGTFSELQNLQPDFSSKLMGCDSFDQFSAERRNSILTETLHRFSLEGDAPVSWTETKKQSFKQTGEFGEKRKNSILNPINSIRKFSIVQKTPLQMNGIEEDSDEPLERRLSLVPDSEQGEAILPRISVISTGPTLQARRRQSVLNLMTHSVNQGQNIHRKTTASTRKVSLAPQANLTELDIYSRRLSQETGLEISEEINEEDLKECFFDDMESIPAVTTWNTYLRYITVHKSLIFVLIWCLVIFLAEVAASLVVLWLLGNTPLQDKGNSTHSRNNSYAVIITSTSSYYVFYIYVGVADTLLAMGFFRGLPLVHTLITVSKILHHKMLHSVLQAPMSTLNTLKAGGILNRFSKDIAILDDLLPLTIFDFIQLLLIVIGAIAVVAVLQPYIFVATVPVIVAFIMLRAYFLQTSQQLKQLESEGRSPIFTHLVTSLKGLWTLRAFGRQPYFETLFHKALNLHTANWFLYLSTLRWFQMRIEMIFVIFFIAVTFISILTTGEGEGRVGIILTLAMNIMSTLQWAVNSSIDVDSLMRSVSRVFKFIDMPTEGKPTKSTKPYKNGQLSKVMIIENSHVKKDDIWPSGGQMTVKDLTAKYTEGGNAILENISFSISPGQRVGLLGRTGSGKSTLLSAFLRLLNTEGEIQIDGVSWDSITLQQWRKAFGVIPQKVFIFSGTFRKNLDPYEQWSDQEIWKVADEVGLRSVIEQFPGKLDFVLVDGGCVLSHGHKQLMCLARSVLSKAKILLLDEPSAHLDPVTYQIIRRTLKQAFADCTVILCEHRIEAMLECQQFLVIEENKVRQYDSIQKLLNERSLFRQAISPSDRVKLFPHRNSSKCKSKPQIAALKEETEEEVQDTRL
Source text: Example 36: H441 Cell Emax and EC50
Two cell lines were used, the H441 carcinoma line and the CFHBE41o− (41o−) human bronchial epithelial line. Both cell lines expressed human Cystic Fibrosis Transmembrane Conductance Regulator (CFTR) harboring the ΔF508 mutation and with an in-frame fusion in CFTR extracellular loop 4 of Horse Radish Peroxidase (HRP) under control of the CMV promoter. In the presence of the HRP tag, ΔF508-CFTR transported to the cell surface was detectable upon addition of an HRP substrate (Luminata Forte). Both cell types were cultivated at 37° C. with CO2.
For both cell types, the medium was changed every other day unless the culture was at low % confluence. Cells were used for the assays at ˜75% confluence.
DMSO/Compound Dilutions Plate for 15-Point Dose-Response Testing
To a polypropylene (PP) 384-well plate, 15 μls DMSO was added to all wells in columns 1-22 and 24 (low Control). 15 μls of 260 μM VX809 (Lumacaftor), Selleckchem S1565, was added to column 23 wells (high Control). 15 μls of 10 mM test compound or VX809 (control) were added to wells of row A. Serial dilutions of Row A compound were performed 2×15 μls in rows A through 0 (15-point).
A PP, 384-well plate containing the appropriate cell culture medium was prepared for each assay plate with 100 μls per well. For the doxycycline-induced 41o− cells, doxycycline for both the assay plate and the medium dilution plate was added at 0.0005 mg/ml to the medium.
Both cell lines were plated for the assay at 30 μls per 384-well at 3.4×10^e5 cells per ml (˜10K cells/well). H441 cells were plated on opaque, white, Corning plate 3704. 41o− cells were plated on collagen-coated opaque, white, Corning plate 356665. For 41o− cells, doxycycline was added to the medium.
Compound Addition/Assay Incubation
Using FX (Beckman) protocol, 10 μls diluted compound or medium was added per well to the Assay Plate as: 2 μls DMSO Dilution plate well is diluted in 100 μls of the Medium Dilution Plate well, mixed, and 10 μls is transferred to the Assay Plate.
The final assay dilution series is 24.5, 12.3, 6.1, 3.1, 1.5, 0.8, 0.4, 0.2, 0.1, 0.05, 0.02, 0.01, 0.006, 0.003, 0.001 and 0 μM. The 41o− assay plates were incubated at 37° C. w/CO2, the H441 assay plates were incubated at 27° C. w/CO2, each overnight for two nights.
Assay Result Determination
After being brought to room temperature, the assay plate liquid was removed. 30 uls of Luminata Forte (Millipore ELLUF0100) was added per well and incubated at room temperature for 10 min. The plates were then read on a Topcount, protocol LumiMatti (CPS, luminescence). The data was analyzed for % of maximum, maximum VX809 signal, and EC50 using Pearl and SPEED tools.

[2] = molecular target: T2, CFTR (ΔF508 homozygous CF-HBE cells) (Homo sapiens, UniProt P13569, DEL508-508); experiment: TECC24 AUC fold over DMSO @10 uM: CFTR-mediated transepithelial chloride transport in primary CF-HBE cells; format: cell-based; settings: 10 μM test agent, 48 hours, forskolin-stimulated IEQ AUC divided by vehicle AUC
T2 construct: Primary human bronchial epithelial cells from a ΔF508 homozygous CF donor; host or cells: primary CF-HBE cells (ΔF508/ΔF508 donor)
T2 sequence (P13569 with tags, fused parts or gaps DEL508-508): as above
Experimental: Example 37: TECC24 AUC Fold Over DMSO @10 uM
The effects of a test agent on CFTR-mediated transepithelial chloride transport was measured using TECC24 recording analysis. Test agents were solubilized in DMSO. Solubilized test agents were mixed with incubation medium containing DMEM/F12, Ultroser G (2%; Crescent Chemical, catalog #67042), Hyclone Fetal Clone 11(2%; GE Healthcare, catalog #SH30066.02), bovine brain extract (0.25%; Lonza, catalog #CC-4098), insulin (2.5 μg/mL), IL-13 (10 ng/mL), hydrocortisone (20 nM), transferrin (2.5 μg/mL), triiodothyronine (500 nM), ethanolamine (250 nM), epinephrine (1.5 μM), phosphoethanolamine (250 nM), and retinoic acid (10 nM). Primary human bronchial epithelial cells from a ΔF508 homozygous CF donor (CF-HBE cells; from University of North Carolina Cystic Fibrosis Tissue Procurement Center), grown on Transwell HTS 24-well cell culture inserts (Costar, catalog #3378), were exposed to test agents or controls dissolved in incubation medium. The CF-HBE cells were cultured at 36.5° C. for 48 hours before TECC24 recordings were performed in the presence or absence of test agent, a positive control or vehicle (DMSO).
Following incubation, the transwell cell culture inserts containing the test agent or control-treated CF-HBE cells were loaded onto a TECC24 apparatus (TECC v7 or MTECC v2; EP Design) to record the transepithelial voltage (VT) and resistance (TEER) using 4 AgCl electrodes per well configured in current-clamp mode. The apical and basolateral bath solutions both contained (in mM) 140 NaCl, 5 KCl, 2 CaCl2, 1 MgCl2, 10 Hepes, and 10 glucose (adjusted to pH 7.4 with NaOH). To inhibit basal Na+ absorption, the ENaC inhibitor benzamil (10 μM) was added to the bath. Then, the adenylate cyclase activator, forskolin (10 μM), was added to the bath to activate CFTR. The forskolin-stimulated Cl— transport was halted by addition of CFTR inhibitor-172 (20 μM) to the bath at the end of the experiment to confirm specificity. VT and TEER recordings were digitally acquired at routine intervals using TECC or MTECC software (EP Design). VT and TEER were transformed into equivalent transepithelial Cl-current (IEQ), and the Area Under the Curve (AUC) of the IEQ time course between forskolin and CFTR inhibitor-172 addition is generated using Excel (Microsoft). Efficacy is expressed as the ratio of the test agent AUC divided by vehicle AUC. EC50s based on AUC are generated using the non-linear regression log(agonist) vs. response function in Prism software (GraphPad) with Hill Slope fixed=1.
If a test agent increased the AUC of the forskolin-stimulated IEQ relative to vehicle in CF-HBE cells, and this increase was inhibited by CFTR inhibitor-172, then the test agent was considered a CFTR corrector.

Structure (SMILES)	EC50 [1]	Emax [1]	TECC24 AUC fold over DMSO [2]
CCC(C)(C)[C@H](NC(=O)c1ccc2cc(Cl)sc2c1OCc1ccc(C(F)(F)F)cc1)C(=O)O [Compound 33-15, (2S)-2-(2-chloro-7-((4-(trifluoromethyl)benzyl)oxy)-benzo[b]thiophene-6-carboxamido)-3,3-dimethylpentanoic acid]	880 nM	200%	A (“A” refers to AUC @10 μM > 6)
CCC(C)(C)[C@H](NC(=O)c1ccc2sc(CCC(C)C)cc2c1OCc1ccc(C(F)(F)F)cc1)C(=O)O [Compound 33-16, (2S)-2-(2-isopentyl-4-((4-(trifluoromethyl)benzyl)oxy)-benzo[b]thiophene-5-carboxamido)-3,3-dimethylpentanoic acid]	340 nM	218%	B (“B” refers to AUC @10 μM between 4-6)
CC(C)(C)[C@H](NC(=O)c1ccc2sc(-c3cscn3)cc2c1OCc1ccc(C(F)(F)F)cc1)C(=O)O [Compound 33-17, (2S)-3,3-dimethyl-2-(2-(thiazol-4-yl)-4-((4-(trifluoromethyl)benzyl)oxy)-benzo[b]thiophene-5-carboxamido)butanoic acid]	3200 nM	57.7%	C (“C” refers to AUC @10 μM < 4)
CCC(C)(C)[C@H](NC(=O)c1ccc2cc(C)sc2c1OCc1ccc(C(F)(F)F)cc1)C(=O)O [Compound 33-19, (2S)-3,3-dimethyl-2-(2-methyl-7-((4-(trifluoromethyl)benzyl)oxy)-benzo[b]thiophene-6-carboxamido)pentanoic acid]	427 nM	255%	A (“A” refers to AUC @10 μM > 6)
CCC(C)(C)[C@H](NC(=O)c1ccc2sc(-c3cscn3)cc2c1OCc1ccc(C(F)(F)F)cc1)C(=O)O [Compound 33-20, (2S)-3,3-dimethyl-2-(2-(thiazol-4-yl)-4-((4-(trifluoromethyl)benzyl)oxy)-benzo[b]thiophene-5-carboxamido)pentanoic acid]	2780 nM	81.2%	C (“C” refers to AUC @10 μM < 4)
CCC(C)(C)[C@H](NC(=O)c1ccc2sc(C(F)(F)F)cc2c1OCc1ccc(C(F)(F)F)cc1)C(=O)O [Compound 33-25, (2S)-3,3-dimethyl-2-(2-(trifluoromethyl)-4-((4-(trifluoromethyl)benzyl)oxy)-benzo[b]thiophene-5-carboxamido)pentanoic acid]	577 nM	200%	A (“A” refers to AUC @10 μM > 6)

Further lines, results first:

EC50 [1]	Emax [1]	TECC24 AUC fold over DMSO [2]	Structure (SMILES)
377 nM	324%	A (“A” refers to AUC @10 μM > 6)	Cc1cc2c(OCc3ccc(OC(F)(F)F)cc3)c(C(=O)N[C@H](C(=O)O)C(C)(C)C)ccc2s1 [Compound 33-13, (2S)-3,3-dimethyl-2-(2-methyl-4-((4-(trifluoromethoxy)benzyl)oxy)-benzo[b]thiophene-5-carboxamido)butanoic acid]
1980 nM	422%	A (“A” refers to AUC @10 μM > 6)	CCC(C)(C)[C@H](NC(=O)c1ccc2sc(OC)cc2c1OCc1ccc(C(F)(F)F)cc1)C(=O)O [Compound 33-14, (2S)-2-(2-methoxy-4-((4-(trifluoromethyl)benzyl)oxy)-benzo[b]thiophene-5-carboxamido)-3,3-dimethylpentanoic acid]
1150 nM	217%	A (“A” refers to AUC @10 μM > 6)	CCC(C)(C)[C@H](NC(=O)c1ccc2cc(C)sc2c1OCc1ccc(OC(F)(F)F)cc1)C(=O)O [Compound 33-18, (2S)-3,3-dimethyl-2-(2-methyl-7-((4-(trifluoromethoxy)benzyl)oxy)-benzo[b]thiophene-6-carboxamido)pentanoic acid]
337 nM	268%	A (“A” refers to AUC @10 μM > 6)	CCc1cc2c(OCc3ccc(C(F)(F)F)cc3)c(C(=O)N[C@H](C(=O)O)C(C)(C)C)ccc2s1 [Compound 33-21, (2S)-2-(2-ethyl-4-((4-(trifluoromethyl)benzyl)oxy)-benzo[b]thiophene-5-carboxamido)-3,3-dimethylbutanoic acid]
755 nM	169%	A (“A” refers to AUC @10 μM > 6)	CCC(C)(C)[C@H](NC(=O)c1ccc2cc(Cl)sc2c1OCc1ccc(OC(F)(F)F)cc1)C(=O)O [Compound 33-22, (2S)-2-(2-chloro-7-((4-(trifluoromethoxy)benzyl)oxy)-benzo[b]thiophene-6-carboxamido)-3,3-dimethylpentanoic acid]
1130 nM	315%	A (“A” refers to AUC @10 μM > 6)	CCc1cc2c(OCc3ccc(OC(F)(F)F)cc3)c(C(=O)N[C@H](C(=O)O)C(C)(C)C)ccc2s1 [Compound 33-23, (2S)-2-(2-ethyl-4-((4-(trifluoromethoxy)benzyl)oxy)-3a,7a-benzo[b]thiophene-5-carboxamido)-3,3-dimethylbutanoic acid]
412 nM	270%	A (“A” refers to AUC @10 μM > 6)	CCC(C)(C)[C@H](NC(=O)c1ccc2sc(C)cc2c1OCc1ccc(C(F)(F)F)cc1)C(=O)O [Compound 33-24, (2S)-3,3-dimethyl-2-(2-methyl-4-((4-(trifluoromethyl)benzyl)oxy)-benzo[b]thiophene-5-carboxamido)pentanoic acid]
1090 nM	197%	B (“B” refers to AUC @10 μM between 4-6)	CCc1cc2ccc(C(=O)N[C@H](C(=O)O)C(C)(C)C)c(OCc3ccc(OC(F)(F)F)cc3)c2s1 [Compound 33-26, (2S)-2-(2-ethyl-7-((4-(trifluoromethoxy)benzyl)oxy)-benzo[b]thiophene-6-carboxamido)-3,3-dimethylbutanoic acid]
